In patent publication US5494907A, “11-β substituted-19-nor steroids” (Roussel UCLAF, priority 1993, dated 1996):

Experiments:
[1] = target: T1, AR (androgen receptor of the prostate of a rat) (Rattus norvegicus, UniProt P15207); experiment: Relative bond affinity (RBA) on androgen receptor of the prostate of a rat, displacement of tritiated testosterone; assay type: binding; conditions: Testosterone = 100; 0° C., 24 hours
T1 construct: using either the natural hormonal receptor of a rat (AR); from tissue; host or cells: prostate of castrated male Sprague Dawley rats, high-speed supernatant
T1 sequence (P15207 1-902): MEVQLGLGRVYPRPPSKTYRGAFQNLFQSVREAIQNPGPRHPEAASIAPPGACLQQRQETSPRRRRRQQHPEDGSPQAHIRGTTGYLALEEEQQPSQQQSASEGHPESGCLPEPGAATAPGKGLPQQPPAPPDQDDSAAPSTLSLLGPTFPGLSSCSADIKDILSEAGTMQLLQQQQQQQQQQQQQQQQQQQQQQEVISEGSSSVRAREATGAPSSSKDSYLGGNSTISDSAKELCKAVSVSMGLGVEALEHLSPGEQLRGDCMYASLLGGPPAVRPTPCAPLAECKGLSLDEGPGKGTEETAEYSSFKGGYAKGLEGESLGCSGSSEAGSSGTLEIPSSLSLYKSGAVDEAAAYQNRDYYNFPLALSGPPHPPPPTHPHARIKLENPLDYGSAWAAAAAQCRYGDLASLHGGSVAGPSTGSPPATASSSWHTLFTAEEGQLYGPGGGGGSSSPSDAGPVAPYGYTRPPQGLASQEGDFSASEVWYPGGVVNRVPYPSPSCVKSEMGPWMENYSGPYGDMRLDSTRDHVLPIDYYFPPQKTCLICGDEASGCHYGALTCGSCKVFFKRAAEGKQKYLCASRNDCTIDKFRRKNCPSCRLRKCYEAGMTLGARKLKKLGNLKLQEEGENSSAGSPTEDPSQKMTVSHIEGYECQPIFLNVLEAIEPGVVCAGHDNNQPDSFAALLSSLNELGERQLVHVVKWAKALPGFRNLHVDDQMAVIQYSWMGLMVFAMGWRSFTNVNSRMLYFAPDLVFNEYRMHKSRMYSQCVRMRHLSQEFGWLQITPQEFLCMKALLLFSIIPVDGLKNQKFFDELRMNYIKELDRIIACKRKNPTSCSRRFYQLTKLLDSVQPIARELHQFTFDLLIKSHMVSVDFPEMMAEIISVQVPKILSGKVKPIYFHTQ
Experimental: 1--Activity on the hormonal receptors using either the natural hormonal receptor of a rat (AR), or the recombinant human receptor (PR, GR and ER).
Androgen receptor of the prostate of a rat
Male Sprague Dawley EOPS rats weighing 180 to 200 g were castrated and 24 hours after the castration, the animals were sacrificed. The prostates were removed, weighed and homogenized at 0° C. using a Potter teflon-glass in a TS buffered solution (10 mM Tris, 0.25 M saccharose, 2 mMDTT, 20 mM MoNa, 0.1 mM PMSF, pH 7.4) (1 g of tissue per 8 ml of TS). The homogenate was centrifuged (209,000 g for 30 minutes) at 0° C. Aliquots of the supernatant were incubated at 0° C. for 24 hours with a constant concentration (T) of tritiated testosterone in the presence of increasing concentrations, either of unlabelled testosterone (0 to 1000×10^-9 M), or of the product under test (1 to 25000×10^-9 M). The concentration of bound tritiated testosterone (B) was measured in each incubate by the technique of adsorption with carbon dextran.
Calculation of the relative bond affinity (RBA).
The following 2 curves were traced: percentage of bound tritiated hormone B/BO as a function of the logarithm of the concentration of unlabelled reference hormone or as a function of the logarithm of the concentration of the unlabelled product under test.
The straight line of the following equation was determined:
BO=Concentration of bound tritiated hormone in the absence of any unlabelled product,
B=Concentration of bound tritiated hormone in the presence of a concentration X of unlabelled product,
B min=Concentration of bound tritiated hormone in the presence of a large excess of cold reference hormone (500 nM). The intersections of the straight line I50 and the curves allowed the evaluation of the concentrations of unlabelled reference hormone (CH) and of the unlabelled product under test (CX) which inhibited by 50% the specific binding of the tritiated hormone on the receptor.
The relative bond affinity (RBA) of the product under test was determined by the equation: […]

[2] = test system: MCF-7 human breast tumour cells; experiment: Anti-proliferative activity on the growth of MCF-7 human breast tumour cells (DNA dosage); assay type: cell-based; conditions: MCF7, stimulated by EGF + PDGF, D7 to D9, read-out: IC50, concentration which inhibited by 50% the growth of the MCF-7 cells
Experimental: 2--Anti-proliferative activity on the growth of MCF-7 human breast tumour cells
The MCF-7 lines were maintained in culture in a base medium (according to 1) containing 5% of foetal calf serum at 37° C. under a humid atmosphere containing 5% CO2. The subconfluent cells were collected by trypsination (0.1% trypsin, 0.02% EDTA) and then rinsed by gentle centrifuging. A sample of the cells in suspension was counted with a Malassez cell.
The cells were resuspended in a base medium without phenol red in the presence of 5% of steroid-free FCS, and stimulated either by 0.1 nM of estradiol, or by 10 ng/ml of EGF+1 ng/ml of PDGF. The cells were seeded at a rate of 50,000 cells per well in multi-well plates (24 wells of 2.5 cm^2). Twenty-four hours after the seeding (DO), the product to be tested was added to the mixture in ethanolic solution (final concentration of ethanol: 0.1%), at a concentration of 10^-11 to 10^-6 M, the control wells receiving the same concentration of ethanol. The media containing the products were renewed every 48 hours. At the end of the experiment (D7 to D9), the mixture was extracted and the cells were immediately fixed with 250 microliters of methanol to dose the DNA. The anti-proliferative activity of the products was evaluated by their capacity to inhibit the increase of DNA relative to the control.
The DNA was dosed by a fluorimetric method using DABA (3,5diaminobenzoic acid) (according to 2): 200 microliters of DABA were added to each well and the plates were incubated for 45 minutes at 56° C. Then, 2 ml of 1N HCl were added and the fluorescence was measured using a fluorimeter (excitation wavelength: 408 nm, emission wavelength: 510 nm). The quantity of DNA per well was evaluated relative to a reference scale obtained by treating a calf thymus DNA standard under the same conditions.
The concentration in nM which inhibited by 50% the growth of the MCF-7 cells stimulated by EGF +PDGF (IC50) was determined in the manner indicated above.

Structure (SMILES)	RBA AR [1]	IC50 [2] [nM]
CN(CC(F)(F)C(F)(F)C(F)(F)F)S(=O)(=O)CCCCCOc1ccc([C@H]2C[C@]3(C)[C@@H](O)CC[C@H]3[C@@H]3CCc4cc(O)ccc4[C@H]32)cc1 [Example 8, 5-[4-(Δ1,3,5(10)-estratrien-3,17β-diol-11βyl)-Phenoxy]-N-(2,2,3,3,4,4,4-heptafluorobutyl)-N-methyl-pentanesulfonamide]	1.5	0.026
CCCCNS(=O)(=O)CCCCCOc1ccc([C@H]2C[C@]3(C)[C@@H](O)CC[C@H]3[C@@H]3CCc4cc(O)ccc4[C@H]32)cc1 [Example 2, N-butyl-5-[4-(Δ1,3,5(10)-estratrien-3,17β-diol-11β-yl)phenoxy]-pentanesulfonamide]	3	0.016
CCCCN(C)S(=O)(=O)CCCCCOc1ccc([C@H]2C[C@]3(C)[C@@H](O)CC[C@H]3[C@@H]3CCc4cc(O)ccc4[C@H]32)cc1 [Example 7, N-butyl-5-[4-(Δ1,3,5(10)-estratrien-3,17β-diol-11β-yl)phenoxy]-N-methyl-pentanesulfonamide]	2.5	0.015
